By Ki is commonly meant a dissociation constant, usually derived from enzyme kinetics or from competition with a known ligand. For orientation: Papp means the rate of passage across a membrane or cell layer, normalised by area and donor concentration. High values mean fast passage, low ones slow passage. As a reminder, the IC50 is the concentration that inhibits the measured activity by half.

Like-named read-outs stand apart in the source and are kept apart here.

This is an account of results in patent US20240189287A1, “PERIPHERALLY RESTRICTED CB1 RECEPTOR BLOCKERS AND USES THEREOF” (BIONANOSIM (BNS) LTD, priority 2021, published 2024).

Data set [1] deals with Salmonella typhimurium (TA98, TA100).
Data set [2] addresses CB2 receptor (Homo sapiens (Human), UniProt P34972). Kind of data set: CB2 receptor radioligand binding assay, [3H]CP-55,940 displacement, human kidney membranes. The conditions noted are these: for Ki: read-out: hCB2R Ki. The procedure:
(§1) Radioligand binding assays: Binding affinity was determined by a radioligand binding assay. The different BB8-conjugates binding to CB1 and CB2 receptors was assessed in competition displacement assays using [^3H]CP-55.940 as the radioligand and crude membranes from mouse brain for CB1 receptor and human kidney cells for CB2 receptor.
CB2 receptor binding assay: Human kidney membranes were used as the source material for CB2 receptors. The displacement of specifically bound tritiated CP-55,940 from these membranes using a standard filtration assay was used to determine the Ki values for the test compounds. Briefly, 1.25 μg of protein was incubated for 1.5 h at 30° C. in the presence of 0.5 nM [^3H]CP-55,940 and various concentrations (10^−5M-10^−11M) of test compound/control, final volume of 1 mL. The incubation was terminated by rapid filtration and washing, and the amount of specifically bound [^3H]CP-55,940 was determined. Briefly, membranes with bound [^3H]CP-55,940 were separated and washed from free ligand by vacuum filtration, adsorbing the membrane onto a Whatman glass microfiber filter paper ([…], Cat #1821271). Finally, the Whatman filter paper with adsorbed membranes was cut and placed in scintillation liquid (Ultima Gold) for 1 h at 25° C. followed by a β counter reading of bound [^3H]CP-55,940 radioligand. All data were in triplicates with Ki values determined using GraphPad Prism 7.02 analysis software.

Data set [3] concerns the target T1, CB1 receptor (Mus musculus (Mouse), UniProt P47746). As to the kind of experiment: CB1 receptor radioligand binding assay, [3H]CP-55,940 displacement, mouse brain membranes. The conditions noted are these: mouse (m) CB1 receptor; read-out: CB1R Ki (nM) (m). The protocol: as §1
CB1 receptor binding assay: Mouse brain membranes were used as the source material for CB1 receptors. The displacement of specifically bound tritiated CP-55.940 from these membranes using a standard filtration assay was used to determine the Ki values for the test compounds. Briefly. 20 μg of protein was incubated for 1 h at 30° C. in the presence of 0.5 nM [^3H]CP-55,940 and various concentrations (10^−5M-10^−11M) of test compound/control, final volume of 1 mL. The incubation was terminated by rapid filtration and washing, and the amount of specifically bound [^3H]CP-55,940 was determined. Briefly, membranes with bound [^3H]CP-55,940 were separated and washed from free ligand by vacuum filtration, adsorbing the membrane onto a Whatman glass microfiber filter paper ([…], Cat #1821271). Finally, the Whatman filter paper with adsorbed membranes was cut and placed in scintillation liquid (Ultima Gold) for 1 h at 25° C. followed by a β counter reading of bound [^3H]CP-55,940 radioligand. All data were in triplicates with Ki values determined using GraphPad Prism 7.02 analysis software. […] In some cases, membranes from human source were used to determine CB1 receptor binding affinity.

For data set [4], the target named is T1, CB1 receptor. As to the kind of experiment: [35S]GTPγS binding assay for CB1 receptor, mouse brain membranes. In kind it is biochemical. The conditions noted are these: nature of binding: agonist/antagonist/inverse agonist. The protocol:
For CB1 receptor-mouse brains were dissected and P2 membranes prepared and resuspended at ˜2 μg protein/μL in 1 ml assay buffer (50 mM Tris HCl, 9 mM MgCl2, 0.2 mM EDTA, 150 mM NaCl; pH 7.4). Ligand-stimulated [^35S]GTPγS binding was assayed as described previously (Tam et al., JCI 2010). Briefly, membranes (10 μg protein) were incubated in assay buffer containing 100 μM GDP, 0.05 nM [^35S]GTPγS, test compounds at various concentrations (CP55940/Rimonabant as controls and test compounds for BB8 conjugates), and 1.4 mg/mL fatty acid-free BSA in siliconized glass tubes. Membranes with bound ligand ([^35S]GTPγS) were separated from free ligand by vacuum filtration and were analyzed using β counter as described above. Non-specific binding was determined using 10 μM GTPS (cold GTP). Basal binding was assayed in the absence of the tested compound and in the presence of GDP.
In general terms: GTPγS resists hydrolysis and so accumulates on activated G proteins.

Data set [5] relates to P-gp (MDR1, ABCB1). Kind of data set: MDR1-MDCK II cell permeation assay (bi-directional permeability, P-gp efflux). The following applies: dog; for Papp at 2.5 h, 2 μM: A to B. Format: in vitro ADME. The protocol: (§2) Test and reference compounds were diluted with transport buffer (HBSS with 10 mM Hepes, pH 7.4) from stock solution to a concentration of 2 μM (DMSO<1%) and applied to the apical or basolateral side of the cell monolayer. Permeation of the test compounds from A to B direction or B to A direction was determined in duplicate with/without P-gp inhibitor (GF120918, 10 μM). […] The plate was incubated for 2.5 hours in CO2 incubator at 37±1° C., with 5% CO2 at saturated humidity without shaking. In addition, the efflux ratio of each compound was also determined. Test and reference compounds were quantified by LC-MS/MS analysis based on the peak area ratio of analyte/IS.
(§3) The in vitro bi-directional permeability across MDR1-MDCKII cells including P-glycoprotein (Pgp, ABCB1) efflux in the presence and absence of a P-gp inhibitor is an indicator as to the tendency of an orally administered compound to penetrate the brain.

Data set [6] relates to MDR1-MDCKII cells. The data set is described as above. In kind it is in vitro ADME. The procedure: as §2, §3
Data set [7] concerns HepG2 Cells. As to the kind of experiment: Cell Viability Assay in HepG2 Cells at 72 h. Format: cell-based, human. The following applies: HepG2, 72 h, read-out: Relative IC50. The protocol:
The liver plays a central role in transforming and clearing chemicals, and therefore is susceptible to toxicity of these agents. BNS808, BNS822 and other selected compounds were tested in the HepG2 assay using […] to evaluate cytotoxicity.

The mark [8] stands for this setting: MDCK-MDR1, pH 7.4, with GF120918, 10 μM, efflux ratio in the presence of P-gp inhibitor GF120918, read-out: MDR1 B:A/A:B (+P-gp inhibitor).
Setting [9] is: MDCK-MDR1, pH 7.4, efflux ratio, without P-gp inhibitor, read-out: MDR1 B:A/A:B.

Chain of CB2 receptor (P34972 whole entry): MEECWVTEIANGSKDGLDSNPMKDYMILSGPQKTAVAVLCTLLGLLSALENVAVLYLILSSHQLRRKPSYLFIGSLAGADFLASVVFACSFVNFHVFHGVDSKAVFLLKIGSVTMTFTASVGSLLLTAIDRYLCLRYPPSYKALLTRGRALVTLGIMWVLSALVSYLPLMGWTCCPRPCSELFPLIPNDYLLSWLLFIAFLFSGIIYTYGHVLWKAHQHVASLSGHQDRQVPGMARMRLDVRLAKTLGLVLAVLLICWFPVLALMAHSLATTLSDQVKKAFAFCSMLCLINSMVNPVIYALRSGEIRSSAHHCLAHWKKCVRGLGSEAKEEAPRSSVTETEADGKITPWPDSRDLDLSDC
T1 sequence (P47746 whole entry): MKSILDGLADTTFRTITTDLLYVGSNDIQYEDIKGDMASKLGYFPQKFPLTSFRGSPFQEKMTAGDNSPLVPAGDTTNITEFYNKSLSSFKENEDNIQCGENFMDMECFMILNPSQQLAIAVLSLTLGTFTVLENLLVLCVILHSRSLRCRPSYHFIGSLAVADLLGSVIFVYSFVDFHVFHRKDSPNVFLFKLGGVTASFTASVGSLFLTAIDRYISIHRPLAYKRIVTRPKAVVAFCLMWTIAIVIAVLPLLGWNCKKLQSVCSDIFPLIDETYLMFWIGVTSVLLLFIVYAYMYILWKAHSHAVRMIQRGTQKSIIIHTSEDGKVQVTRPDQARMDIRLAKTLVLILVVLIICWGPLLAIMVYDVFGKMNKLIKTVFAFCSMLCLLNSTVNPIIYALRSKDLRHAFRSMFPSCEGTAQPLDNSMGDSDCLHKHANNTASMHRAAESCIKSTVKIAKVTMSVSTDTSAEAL

Consider `Nc1ccc2cc3ccccc3cc2c1` [2-Aminoanthracene, reference compound], for which the “AMES result (positive/negative)” value is recorded as “positive” in data set [1] (TA98, S9 yes) and “positive” in data set [1] (TA100, S9 yes).
For `O=[N+]([O-])c1ccc2c(c1)Cc1ccccc1-2` [2-Nitroflurene, reference compound], in data set [1] (TA98, S9 no), the “AMES result (positive/negative)” value is “positive”.
`O=C(NC1CCCOc2c1nn(-c1ccccc1Cl)c2-c1ccc(Cl)cc1)c1ccccn1` (stereo not shown) [BNS810, N-[2-(2-chlorophenyl)-3-(4-chlorophenyl)-5,6,7,8-tetrahydrooxepino[3,2-c]pyrazol-8-yl]pyridine-2-carboxamide]: the Ki in data set [2] is 988 nM; in data set [3], 64.5 nM. Besides, the “mCB1R GTPγ[^35S] (activity)” value in data set [4] is given as “Antagonist”.
Taken in the same sequence, the figures for `O=C(NC1CCCOc2c1nn(-c1ccccc1Cl)c2-c1ccc(Cl)cc1)c1ccncn1` (stereo not shown) [BNS811, N-[2-(2-chlorophenyl)-3-(4-chlorophenyl)-5,6,7,8-tetrahydrooxepino[3,2-c]pyrazol-8-yl]pyrimidine-4-carboxamide] were 963 nM, 65.6 nM and “Antagonist”.
For `O=C(NC1CCCOc2c1nn(-c1ccccc1Cl)c2-c1ccc(Cl)cc1)c1ccncc1` (stereo not shown) [BNS812, N-[2-(2-chlorophenyl)-3-(4-chlorophenyl)-5,6,7,8-tetrahydrooxepino[3,2-c]pyrazol-8-yl]pyridine-4-carboxamide] the same measures were 1300 nM, 16.3 nM and “Antagonist”.
As for `CNC(=O)NC1CCCOc2c1nn(-c1ccccc1Cl)c2-c1ccc(Cl)cc1` (stereo not shown) [BNS813, 1-[2-(2-chlorophenyl)-3-(4-chlorophenyl)-5,6,7,8-tetrahydrooxepino[3,2-c]pyrazol-8-yl]-3-methyl-urea], the Ki in data set [3] worked out at 1130 nM.
`CCOC(=O)N1CCC(C(=O)NC2CCCOc3c2nn(-c2ccccc2Cl)c3-c2ccc(Cl)cc2)CC1` (stereo not shown) [BNS816, Ethyl-4-((2-(2-chlorophenyl)-3-(4-chlorophenyl)-5,6,7,8-tetrahydro-2H-oxepino[3,2-c]pyrazol-8-yl)carbamoyl)piperidine-1-carboxylate]: the Ki in data set [2] is 1530 nM. Moreover, the efflux ratio at 2.5 h, 2 μM in data set [5] (setting [8]) was found to be 0.61. This compound also gave a Papp at 2.5 h, 2 μM in data set [5] (MDCK-MDR1, pH 7.4) of 6.99 ×10⁻⁶ cm/s. Also, in data set [6], the P-gp substrate result is given as “No” and the “Rank Papp” value was “High”. Further, the “MDR1 B:A/A:B” value in data set [6] (efflux ratio, without P-gp inhibitor) was 0.77. Also, in data set [3], the Ki was 8.93 nM. For the same compound, the “mCB1R GTPγ[^35S] (activity)” value in data set [4] is “Inverse Agonist”.
As for `O=C(NC1CCCOc2c1nn(-c1ccccc1Cl)c2-c1ccc(Cl)cc1)C1CCN(C(=O)c2cccnc2)CC1` (stereo not shown) [BNS817, N-[2-(2-chlorophenyl)-3-(4-chlorophenyl)-5,6,7,8-tetrahydrooxepino[3,2-c]pyrazol-8-yl]-1-(pyridine-3-carbonyl)piperidine-4-carboxamide], in data set [2], the “hCB2R Ki (nM)” value was “No binding”. Also, the efflux ratio at 2.5 h, 2 μM in data set [5] (setting [8]) amounted to 0.64. Moreover, in data set [5] (MDCK-MDR1, pH 7.4), the Papp at 2.5 h, 2 μM is 8.09 ×10⁻⁶ cm/s. In addition, in data set [5] (setting [9]), the efflux ratio at 2.5 h, 2 μM is 1.92. Further, in data set [6], the P-gp substrate result was “P-gp substrates and Yes”; the “Rank Papp” value is “High”. Further, the Ki in data set [3] is 290 nM. Further, the “mCB1R GTPγ[^35S] (activity)” value in data set [4] was “Inverse Agonist”.
Take `CNCC(=O)NC1CCCOc2c1nn(-c1ccccc1Cl)c2-c1ccc(Cl)cc1` (stereo not shown) [BNS819, N-[2-(2-chlorophenyl)-3-(4-chlorophenyl)-5,6,7,8-tetrahydrooxepino[3,2-c]pyrazol-8-yl]-2-(methylamino)acetamide]: in data set [3], the Ki is 922 nM.
Still for that read-out and setting: under `O=C(NC1CCCOc2c1nn(-c1ccccc1Cl)c2-c1ccc(Cl)cc1)[C@H]1CCCN1` (stereo partly drawn) [BNS820, (2R)—N-[2-(2-chlorophenyl)-3-(4-chlorophenyl)-5,6,7,8-tetrahydrooxepino[3,2-c]pyrazol-8-yl]pyrrolidine-2-carboxamide] stands 877 nM.
Take `O=C(NC1CCCOc2c1nn(-c1ccccc1Cl)c2-c1ccc(Cl)cc1)[C@@H]1CCCN1` (stereo partly drawn) [BNS821, (2S)—N-[2-(2-chlorophenyl)-3-(4-chlorophenyl)-5,6,7,8-tetrahydrooxepino[3,2-c]pyrazol-8-yl]pyrrolidine-2-carboxamide]: the Ki in data set [3] came to 1400 nM.
On to `CC(C)(Oc1ccc(C(=O)c2ccc(Cl)cc2)cc1)C(=O)NC1CCCOc2c1nn(-c1ccccc1Cl)c2-c1ccc(Cl)cc1` (stereo not shown) [BNS823, 2-[4-(4-chlorobenzoyl)phenoxy]-N-[2-(2-chlorophenyl)-3-(4-chlorophenyl)-5,6,7,8-tetrahydrooxepino[3,2-c]pyrazol-8-yl]-2-methyl-propanamide], for which the “hCB2R Ki (nM)” value in data set [2] is “No binding”. The efflux ratio at 2.5 h, 2 μM in data set [5] (setting [8]) is > 30.9. Also, in data set [5] (MDCK-MDR1, pH 7.4), the Papp at 2.5 h, 2 μM was < 0.003 ×10⁻⁶ cm/s. Also, in data set [5] (setting [9]), the efflux ratio at 2.5 h, 2 μM is > 27.9. Further, in data set [6], the P-gp substrate entry is on record as “No” and the “Rank Papp” value is listed as “Low”. Also, the Ki in data set [3] amounted to 56.7 nM. The “mCB1R GTPγ[^35S] (activity)” value in data set [4] is “Antagonist”.
Turning to `CS(=O)(=O)CC(=O)N1CCC(C(=O)NC2CCCOc3c2nn(-c2ccccc2Cl)c3-c2ccc(Cl)cc2)CC1` (stereo not shown) [BNS824, N-[2-(2-chlorophenyl)-3-(4-chlorophenyl)-5,6,7,8-tetrahydrooxepino[3,2-c]pyrazol-8-yl]-1-(2-methylsulfonylacetyl)piperidine-4-carboxamide], the Ki in data set [3] is 456 nM.
As to `O=C(NC1CCCOc2c1nn(-c1ccccc1Cl)c2-c1ccc(Cl)cc1)C1CCN(S(=O)(=O)c2ccc(Cl)cc2)CC1` (stereo not shown) [BNS825, N-[2-(2-chlorophenyl)-3-(4-chlorophenyl)-5,6,7,8-tetrahydrooxepino[3,2-c]pyrazol-8-yl]-1-(4-chlorophenyl)sulfonyl-piperidine-4-carboxamide], the Ki in data set [2] came to 127 nM; in data set [3], 1.6 nM. Moreover, in data set [7] (Homo sapiens), the IC50 is > 100000 nM. For the same compound, the “mCB1R GTPγ[^35S] (activity)” value in data set [4] was “Antagonist”.
For the compound `CN[C@@H]1C[C@H]2O[C@@](C)([C@@H]1OC)n1c3ccccc3c3c4c(c5c6ccccc6n2c5c31)C(=O)NC4` [Staurosporine, reference compound], in data set [7], the IC50 amounted to 60 nM.
